In patent US20190038628A1, “USE OF INHIBITORS OF THE ACTIVITY OR FUNCTION OF PI3K FOR THE TREATMENT OF PRIMARY SJOGREN'S SYNDROME” (Novartis AG, priority 2016, published 2019):

Key:
Type in all cases: cell-based
[1] = test system: Mouse BCR transgenic B cells; assay: Antigen presentation of mouse BCR transgenic B cells (antigen-loading via MHC II); conditions: Mouse BCR tg B cell; stimulus HEL; mean of at least four experiments; read-out: IC50 APC function
Description: (§1) Purification of CD19^+ splenic B cells from MD4 HEL BcR Tg mice MD4 HEL BcR transgenic B10.BR (MD4 B10.BR) mice were a kind gift from Prof. Jose Moreno (Research Unit on Autoimmune Diseases, Centro Medico Nacional Siglo XXI, Mexico).
(§2) The spleens were isolated from MD4 B10.BR and non-transgenic litter control B10.BR mice after sacrificed by exposure to excess amount of isoflurane. The isolated spleens were suspended in RPMI1640 (Invitrogen, #31870), and dissociated by GentleMACS Dissociator (Miltenyi Biotec), and filtrated with Cell Strainer (BD Falcon, 70 μm mesh, #352350). […] The purity was determined via the proportion of CD19 cells in the separated fraction in FACS analysis, and was more than 95%.
Purified B cells were re-suspended in 50 μl of ice-cold FACS buffer (PBS supplemented with 0.1% azide and 0.1% BSA). […] Stained cell samples were washed with 5 ml of ice-cold FACS buffer twice, and analyzed by FACS Calibur (BD Bioscience). […]
FACS Data was analyzed, and their mean fluorescence intensity (MFI) were calculated with FlowJo software (Tree Star Inc). The IC50 values were calculated with GraphPad PRISM ver 6.0 software (GraphPad Software Inc). […]

[2] = test system: Mouse BCR transgenic B cells; assay: Proinflammatory cytokine release of mouse BCR transgenic B cells; conditions: Mouse BCR tg B cell, stimulus HEL, mean of at least two experiments
Description: as §1, §2
FACS Data was analyzed, and their mean fluorescence intensity (MFI) were calculated with FlowJo software (Tree Star Inc). The IC50 values were calculated with GraphPad PRISM ver 6.0 software (GraphPad Software Inc).
One million of B cells purified from MD4 B10.BR as written in the section 2.1 was suspended in 200 μl of complete culture medium, and stimulated with 100 μM of HEL proteins with soluble CD40 ligand at 37° C., 5% CO2 for 48 hours. […] The data are represented as the mean of concentration (pg/ml) from triplicate samples, and IC50 values are calculated as described above. […]

[3] = test system: BPMC derived from human healthy volunteers; assay: Chemokines in supernatant of PBMC from healthy volunteers stimulated with CpG or anti-IgM (summary statement)
Description: Phosphorylated Akt (pAkt) is a downstream effector of PI3K delta activation. 1-{(S)-3-[6-(6-Methoxy-5-trifluoromethyl-pyridin-3-yl)-5,6,7,8-tetrahydro-pyrido[4,3-d]pyrimidin-4-ylamino]-pyrrolidin-1-yl}-propan-1-one or pharmaceutically acceptable salts thereof is a PI3K inhibitor with a selectivity for the PI3K delta isoform (WO2012/004299). […] 1) Chronic B-cell hyperactivity is a consistent and prominent immunoregulatory abnormality in pSS (Hansen A et al, Arthritis Research & Therapy 2007; 9; 218). […] 1-{(S)-3-[6-(6-Methoxy-5-trifluoromethyl-pyridin-3-yl)-5,6,7,8-tetrahydro-pyrido[4,3-d]pyrimidin-4-ylamino]-pyrrolidin-1-yl}-propan-1-one or pharmaceutically acceptable salts thereof inhibits CXCL13 (BCA-1, BLC), but also of CXCL10 (IP-10) and CCL4 (MIP-1beta) in supernatant of BPMC derived from human healthy volunteers stimulated with CpG or anti-IgM. • 3) Characteristic features in pSS include the formation of ectopic lymphoid tissue with germinal center (GC)-like structures. In healthy individuals, GCs are generated from primary B-cell follicles of secondary lymphoid organs during T-cell-dependent immune responses (Hansen A et al, Arthritis Research & Therapy 2007; 9; 218).

IC50 [1]: 395 nM | IC50 ([2]; read-out: IC50 IL-6): 22 nM | IC50 ([2]; read-out: IC50 TNFα): 28 nM
Compound: CCC(=O)N1CC[C@H](Nc2ncnc3c2CN(c2cnc(OC)c(C(F)(F)F)c2)CC3)C1 [Compound A, 1-{(S)-3-[6-(6-Methoxy-5-trifluoromethyl-pyridin-3-yl)-5,6,7,8-tetrahydro-pyrido[4,3-d]pyrimidin-4-ylamino]-pyrrolidin-1-yl}-propan-1-one]
CCL4 (MIP-1beta) in supernatant (in words) [3]: inhibits | CXCL10 (IP-10) in supernatant (in words) [3]: inhibits | CXCL13 (BCA-1, BLC) in supernatant (in words) [3]: inhibits
